Numbered stars: 1 amine (or outer) side, 2 acyl side, 3 side chain; on linkers, the order of the positions; unused ones are H or OH. Bridge positions count the residues as written; N and C are the ends. Square brackets hold non-standard residues; d marks the D form. Peptide text beside a SMILES is read from it. * marks the point of attachment. X12 = NC(=O)CC[C@@H](N[*:1])C(=O)C[C@@H](Cc1cnc[nH]1)C(=O)[*:2]; X13 = O=C(/C=N/OCCCCCCOC1=CC(C[*:3])=CC(C[*:2])C1)[*:1]; X3 = O=C(/C=N/OCCCCCCOc1cc(C[*:2])cc(C[*:3])c1)[*:1]; X1 = O=C(C=NOCCCCCCOc1cc(C[*:2])cc(C[*:3])c1)[*:1]; X5 = O=C(CCCCCCOc1cc(C[*:2])cc(C[*:3])c1)[*:1]; X11 = CCCCCOc1cc(C[*:1])cc(C[*:2])c1; Cba = N[C@@H](CC1CCC1)C(=O)O; Nle = CCCC[C@H](N)C(=O)O; X10 = CO/N=C/C(=O)*
These molecules were tested against T1, rh-integrin α4β7/LPAM-1 (Homo sapiens, UniProt P13612+P26010) (assay: α4β7-MadCAM Competition ELISA (Example 4)). Details: Table 3 Representative compounds; inhibition of MAdCAM binding to coated α4β7; read-out: IC50.
T1 sequence (P13612 34-977 limits assumed): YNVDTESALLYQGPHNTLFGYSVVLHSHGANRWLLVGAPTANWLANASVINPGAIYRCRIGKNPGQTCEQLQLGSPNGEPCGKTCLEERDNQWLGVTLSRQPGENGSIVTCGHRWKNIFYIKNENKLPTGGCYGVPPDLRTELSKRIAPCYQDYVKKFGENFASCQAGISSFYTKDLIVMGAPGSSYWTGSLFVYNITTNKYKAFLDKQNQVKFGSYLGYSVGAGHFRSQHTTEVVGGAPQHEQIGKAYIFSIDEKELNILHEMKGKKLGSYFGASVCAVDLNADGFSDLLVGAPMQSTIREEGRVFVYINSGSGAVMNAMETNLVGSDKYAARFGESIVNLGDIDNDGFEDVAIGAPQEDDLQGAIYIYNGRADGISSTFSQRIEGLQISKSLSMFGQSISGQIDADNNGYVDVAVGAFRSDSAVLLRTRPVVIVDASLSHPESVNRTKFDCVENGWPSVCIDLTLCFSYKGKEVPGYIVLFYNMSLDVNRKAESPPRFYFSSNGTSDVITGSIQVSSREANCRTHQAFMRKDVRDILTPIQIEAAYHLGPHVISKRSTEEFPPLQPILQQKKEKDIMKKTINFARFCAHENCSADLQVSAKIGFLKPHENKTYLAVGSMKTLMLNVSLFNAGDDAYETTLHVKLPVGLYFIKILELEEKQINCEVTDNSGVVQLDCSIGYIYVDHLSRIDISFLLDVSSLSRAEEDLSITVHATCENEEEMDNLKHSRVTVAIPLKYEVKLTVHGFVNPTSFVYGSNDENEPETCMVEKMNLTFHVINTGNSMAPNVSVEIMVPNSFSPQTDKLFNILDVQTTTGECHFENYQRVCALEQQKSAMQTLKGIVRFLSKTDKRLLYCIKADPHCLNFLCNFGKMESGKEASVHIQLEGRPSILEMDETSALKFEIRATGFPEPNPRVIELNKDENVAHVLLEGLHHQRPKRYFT
T1 sequence (P26010 20-723 limits assumed): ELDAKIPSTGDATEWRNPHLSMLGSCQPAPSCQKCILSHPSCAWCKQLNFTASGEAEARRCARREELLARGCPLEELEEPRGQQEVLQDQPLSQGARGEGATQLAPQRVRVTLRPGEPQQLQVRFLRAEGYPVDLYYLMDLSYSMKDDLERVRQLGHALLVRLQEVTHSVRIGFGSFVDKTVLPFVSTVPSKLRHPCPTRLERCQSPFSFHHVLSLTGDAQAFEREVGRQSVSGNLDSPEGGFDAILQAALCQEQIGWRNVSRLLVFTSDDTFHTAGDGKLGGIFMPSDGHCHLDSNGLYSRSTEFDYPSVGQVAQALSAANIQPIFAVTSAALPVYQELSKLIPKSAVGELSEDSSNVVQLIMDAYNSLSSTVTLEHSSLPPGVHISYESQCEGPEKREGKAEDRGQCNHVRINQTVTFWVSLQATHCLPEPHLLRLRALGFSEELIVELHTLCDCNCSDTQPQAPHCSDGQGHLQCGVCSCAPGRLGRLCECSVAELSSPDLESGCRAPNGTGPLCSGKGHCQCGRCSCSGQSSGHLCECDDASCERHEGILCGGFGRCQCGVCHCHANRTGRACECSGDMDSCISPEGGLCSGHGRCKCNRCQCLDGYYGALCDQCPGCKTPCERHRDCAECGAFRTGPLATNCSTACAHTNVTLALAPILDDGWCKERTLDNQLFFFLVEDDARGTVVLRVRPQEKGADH
Assay type: binding
Protocol: After washing with wash buffer, 200 μL assay buffer was added to each well and incubated for one hour at 28° C. After another wash with wash buffer, 100 μL of a MAdCAM and peptide mixture in assay buffer was added to each well and incubated for one hour at 28° C., followed by washing with wash buffer.

SMILES	IC50
CC(C)C[C@@H]1NC(=O)[C@@H]2CCCN2C(=O)[C@@H]2CSCc3cc(cc(c3)OCCCCCCO/N=C/C(=O)N[C@@H](CCCCN)C(=O)N2)CSC[C@@H](C(N)=O)NC(=O)[C@H](CCC(=O)O)NC(=O)[C@H](C)NC(=O)[C@@H]2CCCN2C(=O)[C@H]([C@@H](C)O)NC(=O)[C@H](CC(=O)O)NC1=O [compound 35, TSL6- SKCPLDTPAEC] (KCPLDTPAEC-NH2; linker N-2-10 via X3)	0.796 µM
C[C@@H](O)[C@@H]1NC(=O)[C@H](CC(=O)O)NC(=O)[C@@H]2CCCN2C(=O)[C@H](Cc2ccc(O)cc2)NC(=O)[C@@H]2CSCc3cc(cc(c3)OCCCCCCO/N=C/C(=O)N[C@@H](CC(=O)O)C(=O)N2)CSC[C@@H](C(N)=O)NC(=O)[C@H](Cc2cnc[nH]2)NC(=O)[C@H](Cc2ccc(O)cc2)NC1=O [compound 88, TSL6- SDCYPDTYHC] (DCYPDTYHC-NH2; linker N-2-9 via X3)	72.5 µM
CC[C@H](C)[C@@H]1NC(=O)[C@H](CC(=O)O)NC(=O)[C@H](CC(C)C)NC(=O)[C@@H]2CCCN2C(=O)[C@@H]2CSCc3cc(cc(c3)OCCCCCCO/N=C/C(=O)N[C@@H](CCCCN)C(=O)N2)CSC[C@@H](C(N)=O)NC(=O)[C@H](CCC(=O)O)NC(=O)[C@H](Cc2ccc(O)cc2)NC(=O)[C@@H]2CCCN2C1=O [compound 11] (KCPLDIPYEC-NH2; linker N-2-10 via X3)	0.198 µM
C[C@@H]1NC(=O)/C=N/OCCCCCCOC2=CC3=CC(CSC[C@H](NC1=O)C(=O)N[C@@H](C)C(=O)N[C@@H](Cc1c[nH]c4ccccc14)C(=O)N[C@@H](Cc1cnc[nH]1)C(=O)N[C@H](CCC(N)=O)C(=O)C[C@@H](Cc1cnc[nH]1)C(=O)N[C@@H](C)C(=O)N[C@H](C(N)=O)CSC3)C2 [compound 57, TSL6- SACAWHQHAC] (ACAWH[X12]AC-NH2; linker N-2-8 via X13)	3.89 µM
CCCC[C@@H]1NC(=O)[C@@H]2CCCN2C(=O)[C@@H]2CSCc3cc(cc(c3)OCCCCCCO/N=C/C(=O)N[C@@H](CCCNC(=N)N)C(=O)N2)CSC[C@@H](C(N)=O)NC(=O)[C@H](CCC(=O)O)NC(=O)[C@H](Cc2ccc(O)cc2)NC(=O)[C@H](Cc2c[nH]c3ccccc23)NC(=O)[C@H](C(C)C)NC(=O)[C@H](CC(=O)O)NC1=O [compound 6] (RCP[Nle]DVWYEC-NH2; linker N-2-10 via X3)	0.13 µM
CCCCCOc1cc2cc(c1)CSC[C@H](NC(=O)[C@H](Cc1ccccc1)NC(=O)/C=N/OC)C(=O)N[C@@H](CC(C)C)C(=O)NCC(=O)N[C@@H](Cc1ccc(O)cc1)C(=O)N[C@@H](CCC(=O)O)C(=O)N[C@@H](C)C(=O)N[C@@H]([C@@H](C)O)C(=O)N[C@H](C(N)=O)CSC2 [compound 97, TSL6- SFCLGYEASC] (X10-FCLGYEATC-NH2; linker 2-9 via X11)	127 µM
CCCC[C@@H]1NC(=O)[C@H](CO)NC(=O)[C@@H]2CSSC[C@@H](C(=O)N[C@@H](Cc3c[nH]c4ccccc34)C(=O)N[C@@H](CCC(N)=O)C(N)=O)NC(=O)[C@H](CC(C)C)NC(=O)[C@@H](CC(=O)O)NC(=O)[C@H](CCCC)NC(=O)[C@H](CO)NC(=O)[C@H](CCCNC(=N)N)NC(=O)[C@H](CSCC(=O)N[C@@H](CCCNC(=N)N)C(=O)N2)NC(=O)[C@H](CC(C)C)NC(=O)[C@H](CC(=O)O)NC1=O [compound 103, Disulfide- RCS{Nle}DICRS NleDICWQ] ({CH2CO}-RCS[Nle]DLCRS[Nle][dD]LCWQ-NH2; disulfide 2-13; thioether N-7)	263 µM
CC(C)[C@@H]1NC(=O)[C@H](CCCCN)NC(=O)[C@@H]2CCCN2C(=O)[C@@H]2CCCN2C(=O)[C@H](CC(=O)O)NC(=O)[C@H](Cc2cnc[nH]2)NC(=O)[C@@H]2CSCc3cc(cc(c3)OCCCCCCO/N=C/C(=O)N[C@@H](CO)C(=O)N2)CSC[C@@H](C(N)=O)NC1=O [compound 77, TSL6- SKCPADVPSC] (SCHDPPKVC-NH2; linker N-2-9 via X3)	41.1 µM
CSCC[C@@H]1NC(=O)[C@H](CC(=O)O)NC(=O)[C@H](CC(C)C)NC(=O)[C@@H]2CCCN2C(=O)[C@@H]2CSCc3cc(cc(c3)OCCCCCCO/N=C/C(=O)N[C@@H](CCCCN)C(=O)N2)CSC[C@@H](C(N)=O)NC(=O)[C@H](CCC(=O)O)NC(=O)[C@H](Cc2ccc(O)cc2)NC(=O)[C@@H]2CCCN2C1=O [compound 29, TSL6- SKCPLDMPYEC] (KCPLDMPYEC-NH2; linker N-2-10 via X3)	0.672 µM
CC[C@H](C)[C@@H]1NC(=O)[C@H](CC(=O)O)NC(=O)[C@H](CCSC)NC(=O)[C@@H]2CCCN2C(=O)[C@@H]2CSCc3cc(cc(c3)OCCCCCCO/N=C/C(=O)N[C@@H](CCCNC(=N)N)C(=O)N2)CSC[C@@H](C(N)=O)NC(=O)[C@H](CCC(=O)O)NC(=O)[C@H](CCC(N)=O)NC(=O)[C@H](Cc2c[nH]c3ccccc23)NC1=O [compound 16] (RCPMDIWQEC-NH2; linker N-2-10 via X3)	0.272 µM
CCCC[C@@H]1NC(=O)[C@@H]2CCCN2C(=O)[C@@H]2CSCc3cc(cc(c3)OCCCCCCO/N=C/C(=O)N[C@@H](CCCNC(=N)N)C(=O)N2)CSC[C@@H](C(N)=O)NC(=O)[C@H](CCC(=O)O)NC(=O)[C@H](CCC(N)=O)NC(=O)[C@H](Cc2c[nH]c3ccccc23)NC(=O)[C@H](CC2CCC2)NC(=O)[C@H](CC(=O)O)NC1=O [compound 55, TSL6-SRCP{Nle}D {CbA}WQEC] (RCP[Nle]D[Cba]WQEC-NH2; linker N-2-10 via X3)	3.45 µM
CC[C@H](C)[C@@H]1NC(=O)[C@H](CC(=O)O)NC(=O)[C@H](CCSC)NC(=O)[C@@H]2CCCN2C(=O)[C@@H]2CSCc3cc(cc(c3)OCCCCCCO/N=C/C(=O)N[C@@H](CCCCN)C(=O)N2)CSC[C@@H](C(N)=O)NC(=O)[C@H]([C@@H](C)O)NC(=O)[C@@H]2CCCN2C1=O [compound 18] (KCPMDIPTC-NH2; linker N-2-9 via X3)	0.345 µM
CCCC[C@@H]1NC(=O)[C@@H]2CCCN2C(=O)[C@@H]2CSCc3cc(cc(c3)OCCCCCCC(=O)NCC(=O)N[C@@H](CCCCN)C(=O)N2)CSC[C@@H](C(N)=O)NC(=O)[C@H](CCC(=O)O)NC(=O)[C@H](CCC(N)=O)NC(=O)[C@H](Cc2c[nH]c3ccccc23)NC(=O)[C@H](CC2CCC2)NC(=O)[C@H](CC(=O)O)NC1=O [compound 45, TSLC7-GKCP{Nle}D {CbA}WQEC] (GKCP[Nle]D[Cba]WQEC-NH2; linker N-3-11 via X5)	1.61 µM
CC(C)C[C@@H]1NC(=O)[C@@H]2CCCN2C(=O)[C@@H](NC(=O)[C@H](CCCCN)NC(=O)[C@@H](N)CO)CSSC[C@@H](C(N)=O)NC(=O)[C@H](CO)NC(=O)[C@@H]2CCCN2C(=O)[C@H](C(C)C)NC(=O)[C@H](CC(=O)O)NC1=O [compound 41] (H-SKCPLDVPSC-NH2; disulfide 3-10)	1.3 µM

Same assay, conditions: competition ELISA, 4 μg/mL α4β7 coated, MAdCAM and peptide mixture, 28° C.; read-out: IC50

SMILES	IC50
CSCC[C@@H]1NC(=O)[C@H]([C@@H](C)O)NC(=O)[C@H](C)NC(=O)CNC(=O)[C@@H]2CSCc3cc(cc(c3)OCCCCCCON=CC(=O)N[C@@H](Cc3ccccc3)C(=O)N2)CSC[C@@H](C(=O)O)NC(=O)[C@H](CCCCN)NC(=O)[C@H](CCCCN)NC1=O [SEQ ID NO: 79] (FCGATMKKC-OH; linker N-2-9 via X1)	162 µM
CC[C@H](C)[C@@H]1NC(=O)[C@H](C)NC(=O)[C@H](CCSC)NC(=O)[C@@H]2CCCN2C(=O)[C@@H]2CSCc3cc(cc(c3)OCCCCCCON=CC(=O)N[C@@H](CCC(N)=O)C(=O)N2)CSC[C@@H](C(=O)O)NC(=O)[C@H]([C@@H](C)O)NC(=O)[C@@H]2CCCN2C1=O [SEQ ID NO: 49] (QCPMAIPTC-OH; linker N-2-9 via X1)	> 500 µM

Source: patent US20230145835A1, “Modulators of Alpha-4-beta-7 Integrin and MAdCAM” (48HD Biopharma Inc., priority 2021, published 2023)
